Experimental data published in patent publication US20250172566A1, “SACCHARIDE SENSING SYSTEMS” (CARBOMETRICS LIMITED, priority 2022, published 2025).

What was measured:
[1] = Fluorescent hydrogel phase glucose responsive assay (10 mM PBS, pH 7.4, 310 K)
[2] = Affinity electrochemistry - cyclic voltammetry glucose responsive assay (10 mM PBS, pH 7.4, 298 K); settings: for Applied potential / Current response: FIM 0.5 mM, reduction process
Method: Affinity electrochemistry measurements were made using a Metrohm Autolab PGSTAT101 potentiostat with a BIDSC-FET interface and screen-printed electrodes DRP-200BT. Data collection and analysis were performed using Nova software by Metrohm Autolab. Further analysis and processing were performed in Microsoft Excel. Measurements obtained at 298 K and at pH 7.4 unless otherwise stated.
Separate samples containing a mixture of GBM, FIM and D-glucose at various concentrations in 10 mM PBS were prepared. 50 μL of each sample was pipetted onto the surface of the screen-printed electrode and the cyclic voltammogram acquired using the CV staircase protocol within the Nova software, using the following settings: Start potential at −0.4 V, upper vertex potential at 0.6 V, lower vertex potential at −0.4 V, stop potential at −0.39756 V, number of scans=3, scan rate at 0.1 V/s and Step at 0.00244 V. The data for each voltammogram was exported into Microsoft excel, processed and compared to give the glucose responsive electrochemical results.
Changes in applied potential and current response were monitored using the reduction process observed during the cyclic voltammogram. Measurements obtained at 298 K and pH 7.4 in 10 mM PBS medium.

[3] = Fluorescent solution phase glucose responsive assay (pH 7.4, 298 K)
Method: Fluorescence spectroscopy was performed on either a HORIBA Duetta or BMG Labtech CLARIOstar plus plate reader. Emission spectra were obtained using the appropriate excitation wavelength and at a temperature of either 298 or 310 K and at pH 7.4 unless otherwise stated. Data collection and analysis were performed using EzSpec software by HORIBA or CLARIOstar MARS software by BMG Labtech. Further analysis and processing were performed in Microsoft Excel.
A solution of GBM and FIM at the required concentrations were created in the appropriate media. The emission spectrum of the assay was then acquired by exciting at the designated excitation wavelength to obtain the baseline emission intensity for the assay. Aliquots of 2 M D-glucose (in the same media) were then added to give the required final glucose concentrations (e.g. 15 μL of 2 M D-glucose in 3 mL gives a final D-glucose concentration of 10 mM) and the assay allowed to reach equilibration. The emission spectra were collected after each addition of D-glucose and compared to the original baseline emission, monitoring at the typical emission maximum (Emmax), and the percentage increase or decrease recorded. Emission spectra acquired on either a Horiba Duetta fluorometer or Clariostar plus plate reader.
The glucose responsive fluorescence emission for different combinations of glucose binding molecules (GBM) and fluorescent inhibitor molecules (FIM) at various concentrations and in various media was tested as described above. All results obtained at pH 7.4 and 298 K unless otherwise stated.
All results obtained at pH 7.4 and 298 K unless otherwise stated.
Table 4 provides the composition of the assay media used as the code assigned to each media as used in Tables 1 to 3.

[4] = 20 mM D-glucose, GBM39 50 uM, FIM 2 uM, Ex 470/Emmax 530 nm, hydrogel D (azido PEG star polymer)
[5] = 50 mM D-glucose, GBM39 50 uM, FIM 2 uM, Ex 470/Emmax 530 nm, hydrogel D (azido PEG star polymer)
[6] = 60 mM D-glucose, GBM39 50 uM, FIM 2 uM, Ex 470/Emmax 530 nm, hydrogel D (azido PEG star polymer)
[7] = 80 mM D-glucose, GBM39 50 uM, FIM 2 uM, Ex 470/Emmax 530 nm, hydrogel D (azido PEG star polymer)
[8] = 100 mM D-glucose, GBM39 50 uM, FIM 2 uM, Ex 470/Emmax 530 nm, hydrogel D (azido PEG star polymer)

C#CCCC(=O)N[C@@H](Cc1cn(CCOCCOCCOCCOc2ccc(CCO[C@@H]3O[C@H](CO)[C@@H](O)[C@H](O)[C@H]3O)cc2)nn1)C(=O)NCC(=O)Nc1ccc2c(c1)C(=O)OC21c2ccc(O)cc2Oc2cc(O)ccc21 [FIM1]
Change in Emmax for FIM at a particular D-glucose concentration ([1]; 20 mM D-glucose, GBM1 10 uM, FIM 1 uM, Ex 470/Emmax 530 nm, hydrogel D (azido PEG star polymer)): 10%
Change in Emmax for FIM at a particular D-glucose concentration ([1]; 50 mM D-glucose, GBM1 10 uM, FIM 1 uM, Ex 470/Emmax 530 nm, hydrogel D (azido PEG star polymer)): 20%
Reversibility of emission on cycling (FIG. 5) ([1]; hydrogel D with GBM1 50 μM and FIM1 5 μM pre-incorporated, cycling 10 mM PBS / 20 mM D-glucose, 310 K, pH 7.4): shows reversibility of hydrogel

O=C(CNC(=O)[C@H](Cc1cn(CCOCCOCCOCCOc2ccc(CCO[C@@H]3O[C@H](CO)[C@@H](O)[C@H](O)[C@H]3O)cc2)nn1)NC(=O)OC[C@@H]1[C@@H]2CCC#CCC[C@@H]21)Nc1ccc2c(c1)C(=O)OC21c2ccc(O)cc2Oc2cc(O)ccc21 [FIM17]
Change in Emmax for FIM at a particular D-glucose concentration ([1]; 20 mM D-glucose, GBM30 100 uM, FIM 10 uM, Ex 480/Emmax 520 nm, hydrogel H (amino azide dextran/PEG)): 120%
Change in Emmax for FIM at a particular D-glucose concentration [1, 4]: 70%
Change in Emmax for FIM at a particular D-glucose concentration [1, 5]: 175%
Change in Emmax for FIM at a particular D-glucose concentration [1, 6]: 215%
Change in Emmax for FIM at a particular D-glucose concentration [1, 7]: 295%
Change in Emmax for FIM at a particular D-glucose concentration [1, 8]: 380%

C#CCCC(=O)NCCCC[C@H](NC(=O)[c-]1cccc1)C(=O)NCCOCCOCCOCCn1cc(-c2ccc(CCO[C@@H]3O[C@H](CO)[C@@H](O)[C@H](O)[C@H]3O)cc2)nn1.[Fe+2].c1cc[cH-]c1 [FIM38]
Applied potential ([2]; 0 mM D-glucose, GBM 0 mM): 0.327 V
Current response ([2]; 0 mM D-glucose, GBM 0 mM): −4.25 ×10^−6 A
Applied potential ([2]; 0 mM D-glucose, GBM15 1 mM): 0.280 V
Current response ([2]; 0 mM D-glucose, GBM15 1 mM): −3.1 ×10^−6 A
Applied potential ([2]; 1 mM D-glucose, GBM15 1 mM): 0.285 V
Current response ([2]; 1 mM D-glucose, GBM15 1 mM): −3.75 ×10^−6 A
Applied potential ([2]; 2 mM D-glucose, GBM15 1 mM): 0.300 V
Current response ([2]; 2 mM D-glucose, GBM15 1 mM): −4.25 ×10^−6 A
Applied potential ([2]; 3 mM D-glucose, GBM15 1 mM): 0.306 V
Current response ([2]; 3 mM D-glucose, GBM15 1 mM): −4.4 ×10^−6 A
Applied potential ([2]; 4 mM D-glucose, GBM15 1 mM): 0.310 V
Current response ([2]; 4 mM D-glucose, GBM15 1 mM): −4.5 ×10^−6 A
Applied potential ([2]; 5 mM D-glucose, GBM15 1 mM): 0.310 V
Current response ([2]; 5 mM D-glucose, GBM15 1 mM): −4.5 ×10^−6 A
Glucose responsive cyclic voltammetry (FIG. 10) ([2]; GBM15 1 mM and FIM38 0.5 mM in 10 mM PBS, addition of D-glucose): shows a shift in both applied potential (V) and current response (A)

C[N+](C)(C)[C@@H](CCCCn1cc(C[C@H](NC(=O)OC[C@@H]2[C@@H]3CCC#CCC[C@@H]32)C(=O)NCCOCCOCCn2cc(CNC(=O)c3ccc4c(c3)C(=O)OC43c4ccc(O)cc4Oc4cc(O)ccc43)nn2)nn1)C(=O)NCC(CO[C@@H]1O[C@H](CO)[C@@H](O)[C@H](O)[C@H]1O)c1ccccc1.O=CO (some centres unmarked) [FIM47]
Change in Emmax for FIM at a particular D-glucose concentration [1, 4]: 40%
Change in Emmax for FIM at a particular D-glucose concentration [1, 5]: 100%
Change in Emmax for FIM at a particular D-glucose concentration [1, 6]: 120%
Change in Emmax for FIM at a particular D-glucose concentration [1, 7]: 160%
Change in Emmax for FIM at a particular D-glucose concentration [1, 8]: 190%
Change in Emmax for FIM at a particular D-glucose concentration ([3]; 5 mM D-glucose, GBM15 50 μM, FIM 5 μM, medium B, Ex 470 nm, Emmax 520 nm): 130%
Change in Emmax for FIM at a particular D-glucose concentration ([3]; 5 mM D-glucose, GBM40 20 uM, FIM 5 uM, Ex 470/Emmax 520 nm, medium B (10 mM PBS)): 265%
Change in Emmax for FIM at a particular D-glucose concentration ([3]; 10 mM D-glucose, GBM15 50 μM, FIM 5 μM, medium B, Ex 470 nm, Emmax 520 nm): 190%
Change in Emmax for FIM at a particular D-glucose concentration ([3]; 10 mM D-glucose, GBM40 20 uM, FIM 5 uM, Ex 470/Emmax 520 nm, medium B (10 mM PBS)): 410%
Change in Emmax for FIM at a particular D-glucose concentration ([3]; 20 mM D-glucose, GBM15 50 μM, FIM 5 μM, medium B, Ex 470 nm, Emmax 520 nm): 260%
Change in Emmax for FIM at a particular D-glucose concentration ([3]; 20 mM D-glucose, GBM40 20 uM, FIM 5 uM, Ex 470/Emmax 520 nm, medium B (10 mM PBS)): 555%
Change in Emmax for FIM at a particular D-glucose concentration ([3]; 40 mM D-glucose, GBM15 50 μM, FIM 5 μM, medium B, Ex 470 nm, Emmax 520 nm): 310%
Change in Emmax for FIM at a particular D-glucose concentration ([3]; 40 mM D-glucose, GBM40 20 uM, FIM 5 uM, Ex 470/Emmax 520 nm, medium B (10 mM PBS)): 710%
Change in Emmax for FIM at a particular D-glucose concentration ([3]; 60 mM D-glucose, GBM15 50 μM, FIM 5 μM, medium B, Ex 470 nm, Emmax 520 nm): 340%
Change in Emmax for FIM at a particular D-glucose concentration ([3]; 80 mM D-glucose, GBM15 50 μM, FIM 5 μM, medium B, Ex 470 nm, Emmax 520 nm): 350%
Change in Emmax for FIM at a particular D-glucose concentration ([3]; 80 mM D-glucose, GBM40 20 uM, FIM 5 uM, Ex 470/Emmax 520 nm, medium B (10 mM PBS)): 860%

C#CCN(C)c1ccc2nc3ccc(N(C)Cc4cn(CC(CO[C@H]5O[C@@H](CO)[C@H](O)[C@@H](O)[C@@H]5O)c5ccccc5)nn4)cc3[s+]c2c1 (some centres unmarked) [FIM52]
Applied potential ([2]; 1 mM D-glucose, GBM15 1 mM): −0.287 V
Current response ([2]; 1 mM D-glucose, GBM15 1 mM): −9.11 ×10^−6 A
Applied potential ([2]; 2 mM D-glucose, GBM15 1 mM): −0.258 V
Current response ([2]; 2 mM D-glucose, GBM15 1 mM): −9.52 ×10^−6 A
Applied potential ([2]; 10 mM D-glucose, GBM15 1 mM): −0.239 V
Current response ([2]; 10 mM D-glucose, GBM15 1 mM): −10.0 ×10^−6 A
Applied potential ([2]; 20 mM D-glucose, GBM15 1 mM): −0.231 V
Current response ([2]; 20 mM D-glucose, GBM15 1 mM): −11.1 ×10^−6 A
Applied potential ([2]; 50 mM D-glucose, GBM15 1 mM): −0.231 V
Current response ([2]; 50 mM D-glucose, GBM15 1 mM): −11.4 ×10^−6 A
